Drawing on patent US6780875B2, “Quinoline-4-carboxamide derivatives as NK-3 and NK-2 receptor antagonists” (SmithKline Beecham S.p.A., priority 1998, dated 2004), this text covers melting point for 28 compounds.

`C[C@H](NC(=O)c1c(CN2CCN(C(=O)CN3CCN(C)CC3)CC2)c(-c2ccccc2)nc2ccccc12)C1CCCCC1` [Example 48, 3-{4-[2-(4-Methyl-piperazin-1-yl)-ethanoyl]-piperazin-1-ylmethyl}-2-phenyl-quinoline-4-carboxylic acid ((S)-1-cyclohexyl-ethyl)-amide] registered a melting point of 162 to 163 °C.

The compound `C[C@H](NC(=O)c1c(CN2CCOCC2)c(-c2ccccc2)nc2ccccc12)C1CCCCC1` [Example 54, 3-Morpholin-4-ylmethyl-2-phenyl-quinoline-4-carboxylic acid ((S)-1-cyclohexyl-ethyl)-amide] came in with a melting point of 178 to 180 °C. Under `CC[C@H](NC(=O)c1c(CN2CCC(N)CC2)c(-c2ccccc2)nc2ccccc12)c1ccccc1` [Example 55, 3-(4-Amino-piperidin-1-ylmethyl)-2-phenyl-quinoline-4-carboxylic acid ((S)-1-phenyl-propyl)-amide] stands 98 to 102 °C. Under `CC[C@H](NC(=O)c1c(CN2CCN(c3ccccn3)CC2)c(-c2ccccc2)nc2ccccc12)c1ccccc1` [Example 56, 2-Phenyl-3-(4-pyridin-2-yl-piperazin-1-ylmethyl)-quinoline-4-carboxylic acid ((S)-1-phenyl-propyl)-amide] stands 125 to 126 °C; under `COCCN(CCOC)Cc1c(-c2ccccc2)nc2ccccc2c1C(=O)N[C@@H](C)C1CCCCC1` [Example 58, 3-{[Bis-(2-methoxy-ethyl)-amino]-methyl}-2-phenyl-quinoline-4-carboxylic acid ((S)-1-cyclohexyl-ethyl)-amide], 114 to 115 °C; under `C[C@H](NC(=O)c1c(CN2CCN(c3ccccn3)CC2)c(-c2ccccc2)nc2ccccc12)C1CCCCC1` [Example 59, 2-Phenyl-3-(4-pyridin-2-yl-piperazin-1-ylmethyl)-quinoline-4-carboxylic acid ((S)-1-cyclohexyl-ethyl)-amide], 152 to 154 °C. Under `CC[C@H](NC(=O)c1c(CN2C[C@@H](C)N[C@@H](C)C2)c(-c2ccccc2)nc2ccccc12)c1ccccc1` [Example 60, 3-((3R,5S)-3,5-Dimethyl-piperazin-1-ylmethyl)-2-phenyl-quinoline-4-carboxylic acid ((S)-1-phenyl-propyl)-amide] stands 114 to 120 °C; under `C[C@H](NC(=O)c1c(CN2CCC3(CC2)OCCO3)c(-c2ccccc2)nc2ccccc12)C1CCCCC1` [Example 61, 3-(1,4-Dioxa-8-aza-spiro[4.5]dec-8-ylmethyl)-2-phenyl-quinoline-4-carboxylic acid ((S)-1-cyclohexyl-ethyl)-amide], 184 to 185 °C. For `CC[C@H](NC(=O)c1c(CN2CCC(N3CCN(C)CC3)CC2)c(-c2ccccc2)nc2ccccc12)c1ccccc1` [Example 62, 3-[4-(4-Methyl-piperazin-1-yl)-piperidin-1-ylmethyl]-2-phenyl-quinoline-4-carboxylic acid ((S)-1-phenyl-propyl)-amide], the melting point was 85 to 100 °C. Under `CC[C@H](NC(=O)c1c(CN2CCC3(CC2)CNC(=O)C3)c(-c2ccccc2)nc2ccccc12)c1ccccc1` [Example 63, 3-(3-Oxo-2,8-diaza-spiro[4.5]dec-8-ylmethyl)-2-phenyl-quinoline-4-carboxylic acid ((S)-1-phenyl-propyl)-amide] stands 129 to 131 °C; under `CC[C@H](NC(=O)c1c(CN2CCC(N3CCCCC3)CC2)c(-c2ccccc2)nc2c(Br)c(OC)ccc12)c1ccccc1` [Example 66, 3-[1,4′]Bipiperidinyl-1′-ylmethyl-8-bromo-7-methoxy-2-phenyl-quinoline-4-carboxylic acid ((S)-1-phenyl-propyl)-amide], 156 to 160 °C; under `C[C@H](NC(=O)c1c(CN2CCN(c3c(N4CCCC4)c(=O)c3=O)CC2)c(-c2ccccc2)nc2ccccc12)C1CCCCC1` [Example 72, 3-[4-(3,4-Dioxo-2-pyrrolidin-1-yl-cyclobut-1-enyl)-piperazin-1-ylmethyl]-2-phenyl-quinoline-4-carboxylic acid ((S)-1-cyclohexyl-ethyl)-amide], 170 to 180 °C. Under `CNC(=NC#N)N1CCN(Cc2c(-c3ccccc3)nc3ccccc3c2C(=O)N[C@@H](C)C2CCCCC2)CC1` [Example 73, 3-[4-(-1-Cyanoimino-1-methylamino-methyl)-piperazin-1-ylmethyl]-2-phenyl-quinoline-4-carboxylic acid ((S)-1-cyclohexyl-ethyl)amide] stands 175 to 180 °C; under `C[C@H](NC(=O)c1c(CN2CCN(C3=NCCS3)CC2)c(-c2ccccc2)nc2ccccc12)C1CCCCC1` [Example 74, 3-[4-(4,5-Dihydro-thiazol-2-yl)-piperazin-1-ylmethyl]-2-phenyl-quinoline-4-carboxylic acid ((S)-1-cyclohexyl-ethyl)-amide], 174 to 176 °C. Under `CNC(=S)N1CCN(Cc2c(-c3ccccc3)nc3ccccc3c2C(=O)N[C@@H](C)C2CCCCC2)CC1` [Example 75, 3-(4-Methylthiocarbamoyl-piperazin-1-ylmethyl)-2-phenyl-quinoline-4-carboxylic acid ((S)-1-cyclohexyl-ethyl)-amide] stands 204 to 206 °C; under `C[C@H](NC(=O)c1c(CN2CCN(C(=NC#N)N3CCCC3)CC2)c(-c2ccccc2)nc2ccccc12)C1CCCCC1` [Example 76, 3-[4-(1-Cyanoimino-1-pyrrolidin-1-yl-methyl)-piperazin-1-ylmethyl]-2-phenyl-quinoline-4-carboxylic acid ((S)-1-cyclohexyl-ethyl)-amide], 154 to 155 °C; under `CC[C@H](NC(=O)c1c(CN2CCC(N3CCNC3=O)CC2)c(-c2ccccc2)nc2ccccc12)c1ccccc1` [Example 77, 3-[4-(2-Oxo-imidazolidin-1-yl)-piperidin-1-ylmethyl]-2-phenyl-quinoline-4-carboxylic acid ((S)-1-phenyl-propyl)-amide], 240 to 242 °C. Compound `CCN(CC)CCC(=O)N1CCN(Cc2c(-c3ccccc3)nc3ccccc3c2C(=O)N[C@H](c2ccccc2)C(C)C)CC1` [Example 80, 3-[4-(3-Diethylamino-propanoyl)-piperazin-1-ylmethyl]-2-phenyl-quinoline-4-carboxylic acid ((S)-2-methyl-1-phenyl-propyl)-amide] came in with a melting point of 120 to 125 °C.

Take `C[C@H](NC(=O)c1c(CN2CCN(C(=C[N+](=O)[O-])N3CCCC3)CC2)c(-c2ccccc2)nc2ccccc12)C1CCCCC1` [Example 81, 3-[4-(2-Nitro-1-pyrrolidin-1-yl-vinyl)-piperazin-1-ylmethyl]-2-phenyl-quinoline-4-carboxylic acid ((S)-1-cyclohexyl-ethyl)-amide]: the melting point was 164 to 165 °C. Under `C[C@H](NC(=O)c1c(CN2CCN(C(=O)CCC(=O)O)CC2)c(-c2ccccc2)nc2ccccc12)C1CCCCC1` [Example 83, 4-{4-[4-((S)-1-Cyclohexyl-ethylcarbamoyl)-2-phenyl-quinolin-3-ylmethyl]-piperazin-1-yl}-4-oxo-butyric acid] stands 208 to 209 °C; under `C[C@H](NC(=O)c1c(CN2CCN(C(=NS(C)(=O)=O)N3CCCC3)CC2)c(-c2ccccc2)nc2ccccc12)C1CCCCC1` [Example 84, 3-[4-(1-Methanesulfonylimino-1-pyrrolidin-1-yl-methyl)-piperazin-1-ylmethyl]-2-phenyl-quinoline-4-carboxylic acid ((S)-1-cyclohexyl-ethyl)-amide], 130 to 140 °C; under `CC(C)[C@H](NC(=O)c1c(CN2CCN(C(=O)CCC(=O)O)CC2)c(-c2ccccc2)nc2ccccc12)c1ccccc1` [Example 85, 4-{4-[4-((S)-2-Methyl-1-phenyl-propylcarbamoyl)-2-phenyl-quinolin-3-ylmethyl]-piperazin-1-yl}-4-oxo-butyric acid], 173 to 175 °C. Under `CC(C)[C@H](NC(=O)c1c(CN2CCN(C(=O)c3ccccc3C(=O)O)CC2)c(-c2ccccc2)nc2ccccc12)c1ccccc1` [Example 86, 2-(1-{4-[4-((S)-2-Methyl-1-phenyl-propylcarbamoyl)-2-phenyl-quinolin-3-ylmethyl]-piperazin-1-yl}-methanoyl)-benzoic acid] stands 189 to 191 °C. Under `C[C@H](NC(=O)c1c(CN2CCN(C(=O)c3ccccc3C(=O)O)CC2)c(-c2ccccc2)nc2ccccc12)C1CCCCC1` [Example 87, 2-(1-{4-[4-((S)-1-Cyclohexyl-ethylcarbamoyl)-2-phenyl-quinolin-3-ylmethyl]-piperazin-1-yl}-methanoyl)-benzoic acid] stands 209 to 211 °C; under `COc1ccc2c(C(=O)N[C@@H](C)C3CCCCC3)c(CN3CCC(N4CCCCC4)CC3)c(-c3ccccc3)nc2c1` [Example 88, 3-[1,4′]Bipiperidinyl-1′-ylmethyl-7-methoxy-2-phenyl--quinoline-4-carboxylic acid ((S)-1-cyclohexyl-ethyl)-amide], 139 to 144 °C (dec.); under `CC[C@H](NC(=O)c1c(CN2CCC(N3CCCCC3)CC2)c(-c2ccccc2)nc2c(Cl)c(O)ccc12)c1ccccc1` [Example 89, 3-[1,4′]Bipiperidinyl-1′-ylmethyl-8-chloro-7-hydroxy-2-phenyl-quinoline-4-carboxylic acid ((S)-1-phenyl-propyl)-amide], 209 to 216 °C (dec.). As to `CC[C@H](NC(=O)c1c(CN2CCN(S(N)(=O)=O)CC2)c(-c2ccccc2)nc2ccccc12)c1ccccc1` [Example 90, 2-Phenyl-3-(4-sulfamoyl-piperazin-1-ylmethyl)-quinoline-4-carboxylic acid ((S)-1-phenyl-propyl)-amide], the melting point was 133 °C (dec.). Under `CC[C@H](NC(=O)c1c(CN2CCN(S(=O)(=O)N(C)C)CC2)c(-c2ccccc2)nc2ccccc12)c1ccccc1` [Example 91, 3-(4-Dimethylsulfamoyl-piperazin-1-ylmethyl)-2-phenyl-quinoline-4-carboxylic acid ((S)-1-phenyl-propyl)-amide] stands 107 to 111 °C (dec.).

Usually melting point stands for the temperature, or range, at which the solid turns liquid.
